Data as given in US20250152751A1, “RED-SHIFTED FLUOROPHORES AND METHODS OF USING THE SAME” (GEORGIA STATE UNIVERSITY RESEARCH FOUNDATION, INC., priority 2022, published 2025).

What was measured:
[1] = Optical properties of the fluorophores measured in ethanol, compared to ICG; type: physicochemical; settings: for Φ^a (%): compared to ICG
Procedure, shortened: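 Optical properties of the fluorophores were measured in ethanol and compared with a reference dye. Read-outs were absorption maximum, emission maximum, Stokes shift, quantum yield and molar extinction coefficient. The text gives no concentrations, instrument, temperature, replicates or derivation method.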

[2] = Solvatochromism: absorption maximum in different solvents; type: physicochemical

Row | Compound | Stokes Shift (nm) [1] [nm] | λabs (nm) [1] [nm] | λem (nm) [1] [nm] | ϵ (cm^−1 M^−1) [1] | Φ^a (%) [1] [%] | λabs (nm) Acetonitrile [2] [nm] | λabs (nm) DMSO [2] [nm] | λabs (nm) Ethanol [2] [nm] | λabs (nm) Methanol [2] [nm]
1 | CCCCN1/C(=C/C=C2\CC(C(C)(C)C)CC(/C=C(\C#N)C(=O)O)=C2Cl)Sc2ccccc21 (stereo not drawn) [Compound 65] | 12 | 800 | 812 | 192,000 cm^−1 M^−1 | 10.5 | – | – | – | –
2 | CCCCN1/C(=C/C=C2\CCCC(C=C(C#N)C#N)=C2Cl)C(C)(C)c2c1ccc1ccccc21 [Compound 76] | 6 | 820 | 826 | 146,400 cm^−1 M^−1 | 8.8 | 820 | 835 | 820 | 820
3 | CCN1C(=CC=C2CCCC(C=C(C#N)C#N)=C2Cl)C(C)(C)c2cc(Cl)ccc21 [Compound 75] | 15 | 790 | 805 | 145,400 cm^−1 M^−1 | 11.5 | – | – | – | –
4 | CCCCN1/C(=C/C=C2\CCCC(/C=C(\C#N)C(=O)O)=C2Cl)C(C)(C)c2c1ccc1ccccc21 [Compound 56] | 7 | 820 | 827 | 151,100 cm^−1 M^−1 | 9.6 | – | – | – | –
5 | CCCCN1/C(=C/C=C2\CCCC(/C=C(\C#N)C(=O)O)=C2Cl)Sc2ccccc21 [Compound 57] | 14 | 800 | 814 | 198,700 cm^−1 M^−1 | 10.5 | – | – | – | –
6 | CCN1C(=CC=C2CC(c3ccccc3)CC(C=C(C#N)C(=O)O)=C2Cl)C(C)(C)c2cc(F)ccc21 (stereo not drawn) [Compound 67] | 16 | 780 | 796 | 124,700 cm^−1 M^−1 | 12.3 | – | – | – | –
7 | CCN1C(=CC=C2CC(C(C)(C)C)CC(C=C(C#N)C(=O)O)=C2Cl)C(C)(C)c2cc(F)ccc21 (stereo not drawn) [Compound 59] | 19 | 780 | 799 | 123,000 cm^−1 M^−1 | 12.5 | – | – | – | –
8 | CCN1C(=CC=C2CC(c3ccccc3)CC(C=C(C#N)C(=O)O)=C2Cl)C(C)(C)c2cc(Cl)ccc21 (stereo not drawn) [Compound 69] | 11 | 790 | 801 | 136,500 cm^−1 M^−1 | 11.7 | – | – | – | –
9 | CN1C(=CC=C2CCCC(C=C(C#N)C(=O)O)=C2Cl)C(C)(C)c2cc(F)ccc21 [Compound 49] | 15 | 780 | 795 | 195,100 cm^−1 M^−1 | 12.6 | – | – | – | –
10 | CN1C(=CC=C2CCCC(C=C(C#N)C(=O)O)=C2Cl)C(C)(C)c2cc(Br)ccc21 [Compound 52] | 16 | 790 | 806 | 153,600 cm^−1 M^−1 | 11.8 | – | – | – | –
11 | CCCCN1C(=CC=C2CCCC(C=C(C#N)C(=O)O)=C2Sc2ccncc2)C(C)(C)c2ccccc21 [Compound 78] | 15 | 800 | 815 | 166,300 cm^−1 M^−1 | 11.3 | 795 | 810 | 800 | 800
12 | CCN1C(=CC=C2CCCC(C=C(C#N)C(=O)O)=C2Cl)C(C)(C)c2ccccc21 [Compound 47] | 20 | 780 | 800 | 179,500 cm^−1 M^−1 | 12.3 | – | – | – | –
13 | CCN1C(=CC=C2CCCC(C=C(C#N)C(=O)O)=C2Cl)C(C)(C)c2cc(Br)ccc21 [Compound 53] | 17 | 790 | 807 | 171,000 cm^−1 M^−1 | 11.8 | – | – | – | –
14 | CCN1C(=CC=C2CC(c3ccccc3)CC(C=C(C#N)C(=O)O)=C2Cl)C(C)(C)c2cc(Br)ccc21 (stereo not drawn) [Compound 68] | 15 | 790 | 805 | 167,800 cm^−1 M^−1 | 12.1 | – | – | – | –
15 | CN1C(=CC=C2CCCC(C=C(C#N)C(=O)O)=C2N2CCC(CO)CC2)C(C)(C)c2cc(Br)ccc21 [Compound 81] | 126 | 665 | 791 | 64,200 cm^−1 M^−1 | 18.3 | – | – | – | –
16 | CCN1C(=CC=C2CC(C(C)(C)C)CC(C=C(C#N)C(=O)O)=C2N2CCC(CO)CC2)C(C)(C)c2ccccc21 (stereo not drawn) [Compound 84] | 124 | 660 | 784 | 75,100 cm^−1 M^−1 | 18.6 | 640 | 665 | 660 | 650
17 | CCN1C(=CC=C2CC(C(C)(C)C)CC(C=C(C#N)C(=O)O)=C2Cl)C(C)(C)c2ccccc21 (stereo not drawn) [Compound 58] | 17 | 780 | 797 | 138,200 cm^−1 M^−1 | 12.7 | – | – | – | –

Row | Compound | Stokes Shift (nm) [1] [nm] | λabs (nm) [1] [nm] | λem (nm) [1] [nm] | ϵ (cm^−1 M^−1) [1] | Φ^a (%) [1] [%] | λabs (nm) Acetonitrile [2] [nm] | λabs (nm) DMSO [2] [nm] | λabs (nm) Ethanol [2] [nm] | λabs (nm) Methanol [2] [nm]
18 | CCN1C(=CC=C2CC(C(C)(C)C)CC(C=C(C#N)C(=O)O)=C2Cl)C(C)(C)c2cc(Cl)ccc21 (stereo not drawn) [Compound 62] | 15 | 790 | 805 | 114,100 cm^−1 M^−1 | 11.5 | – | – | – | –
19 | CCN1C(=CC=C2CCCC(C=C(C#N)C(=O)O)=C2Cl)C(C)(C)c2cc(F)ccc21 [Compound 50] | 14 | 780 | 799 | 165,300 cm^−1 M^−1 | 12.2 | – | – | – | –
20 | CCCCN1C(=CC=C2CCCC(C=C(C#N)C(=O)O)=C2Cl)C(C)(C)c2ccccc21 [Compound 48] | 17 | 785 | 802 | 181,400 cm^−1 M^−1 | 12.1 | – | – | – | –
21 | CN1C(=CC=C2CC(C(C)(C)C)CC(C=C(C#N)C(=O)O)=C2Cl)C(C)(C)c2c1ccc1ccccc21 (stereo not drawn) [Compound 63] | 6 | 815 | 821 | 167,100 cm^−1 M^−1 | 9.8 | – | – | – | –
22 | CCCCN1C(=CC=C2CCCC(C=C(C#N)C#N)=C2Cl)C(C)(C)c2ccccc21 [Compound 72] | 15 | 785 | 800 | 143,900 cm^−1 M^−1 | 12.1 | – | – | – | –
23 | CCCCN1C(=CC=C2CCCC(C=C(C#N)C#N)=C2Cl)C(C)(C)c2cc(F)ccc21 [Compound 73] | 17 | 785 | 802 | 168,800 cm^−1 M^−1 | 12.2 | – | – | – | –
24 | CCN1C(=CC=C2CCCC(C=C(C#N)C#N)=C2Cl)C(C)(C)c2ccccc21 [Compound 71] | 17 | 780 | 797 | 144,100 cm^−1 M^−1 | 12.1 | – | – | – | –
25 | CCCCN1C(=CC=C2CCCC(C=C(C#N)C(=O)O)=C2Cl)C(C)(C)c2cc(Cl)ccc21 [Compound 55] | 13 | 795 | 808 | 115,500 cm^−1 M^−1 | 11.5 | – | – | – | –
26 | CCN1C(=CC=C2CCCC(C=C(C#N)C(=O)O)=C2Cl)C(C)(C)c2cc(Cl)ccc21 [Compound 54] | 15 | 790 | 805 | 156,500 cm^−1 M^−1 | 12.0 | – | – | – | –
27 | CCN1C(=CC=C2CC(c3ccccc3)CC(C=C(C#N)C(=O)O)=C2Cl)C(C)(C)c2ccccc21 (stereo not drawn) [Compound 66] | 15 | 780 | 795 | 155,700 cm^−1 M^−1 | 12.4 | – | – | – | –
28 | CCCCN1C(=CC=C2CCCC(C=C(C#N)C(=O)O)=C2Cl)C(C)(C)c2cc(F)ccc21 [Compound 51] | 17 | 785 | 802 | 176,400 cm^−1 M^−1 | 11.9 | – | – | – | –
29 | CCN1C(=CC=C2CC(C(C)(C)C)CC(C=C(C#N)C(=O)O)=C2Cl)C(C)(C)c2cc(Br)ccc21 (stereo not drawn) [Compound 61] | 15 | 790 | 805 | 123,500 cm^−1 M^−1 | 11.4 | – | – | – | –
30 | CCCCN1C(=CC=C2CC(C(C)(C)C)CC(C=C(C#N)C(=O)O)=C2Cl)C(C)(C)c2c1ccc1ccccc21 (stereo not drawn) [Compound 64] | 8 | 820 | 828 | 146,300 cm^−1 M^−1 | 7.3 | – | – | – | –
31 | CCCCN1C(=CC=C2CC(C(C)(C)C)CC(C=C(C#N)C(=O)O)=C2Cl)C(C)(C)c2cc(F)ccc21 (stereo not drawn) [Compound 60] | 18 | 785 | 803 | 137,400 cm^−1 M^−1 | 12.6 | – | – | – | –
32 | CCN1C(=CC=C2CC(C(C)(C)C)CC(C=C(C#N)C(=O)O)=C2N2CCC(CO)CC2)C(C)(C)c2cc(Cl)ccc21 (stereo not drawn) [Compound 85] | 143 | 645 | 788 | 60,000 cm^−1 M^−1 | 19.9 | – | – | – | –
33 | CCN1C(=CC=C2CCCC(C=C(C#N)C(=O)O)=C2N2CCC(CO)CC2)C(C)(C)c2cc(Cl)ccc21 [Compound 83] | 122 | 670 | 792 | 75,300 cm^−1 M^−1 | 17.4 | – | – | – | –
